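Method: 48-hour compound exposure of cells in 96-well plates, five concentrations, linear interpolation of endpoints. GI50 marks 50% less growth.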 Active and inactive are the calls of the source. Rule as the data show it: active = GI50 up to about 1.1 µM and inactive = higher.
Key:
Experiment in all cases: DTP human tumour cell line panel, 48 h
A498 = test system: A498
ACHN = test system: ACHN
DU-145 = test system: DU-145
HCC 2998 = test system: HCC 2998
HL-60 = test system: HL-60
HOP-92 = test system: HOP-92
HT-29 = test system: HT-29
IGROV-1 = test system: IGROV-1
KM12 = test system: KM12
NCI-H23 = test system: NCI-H23
OVCAR-4 = test system: OVCAR-4
RPMI-8226 = test system: RPMI-8226
SF-539 = test system: SF-539
SK-MEL-28 = test system: SK-MEL-28
SK-MEL-2 = test system: SK-MEL-2
SK-MEL-5 = test system: SK-MEL-5
SR = test system: SR
TK-10 = test system: TK-10
UO-31 = test system: UO-31
SN12C = test system: SN12C

Structure (SMILES) | GI50 (A498) | GI50 (ACHN) | GI50 (DU-145) | GI50 (HCC 2998) | GI50 (HL-60) | GI50 (HOP-92) | GI50 (HT-29) | GI50 (IGROV-1) | GI50 (KM12) | GI50 (NCI-H23) | GI50 (OVCAR-4) | GI50 (RPMI-8226) | GI50 (SF-539) | GI50 (SK-MEL-28) | GI50 (SK-MEL-2) | GI50 (SK-MEL-5) | GI50 (SR) | GI50 (TK-10) | GI50 (UO-31) | GI50 (SN12C)
CCn1c(-c2cc3ccccc3cc2OC(C)=O)n[nH]c1=S | 25.8 µM (inactive) | 35.8 µM (inactive) | 35.5 µM (inactive) | 18 µM (inactive) | 0.0805 µM (active) | 58.1 µM (inactive) | 30.4 µM (inactive) | 39.6 µM (inactive) | 27.6 µM (inactive) | 30.5 µM (inactive) | 30 µM (inactive) | 18.7 µM (inactive) | 35.6 µM (inactive) | 32.4 µM (inactive) | 18.2 µM (inactive) | 14.9 µM (inactive) | 0.624 µM (active) | 27.4 µM (inactive) | 67.8 µM (inactive) | –
NC(N)=NCc1ccc2c(c1)OCO2 | 28.2 µM (inactive) | 65.5 µM (inactive) | > 100 µM (inactive) | > 100 µM (inactive) | 60.3 µM (inactive) | 54.1 µM (inactive) | 72.9 µM (inactive) | > 100 µM (inactive) | 50 µM (inactive) | 61.1 µM (inactive) | > 100 µM (inactive) | 74 µM (inactive) | 42.7 µM (inactive) | 67.3 µM (inactive) | > 100 µM (inactive) | 24 µM (inactive) | > 100 µM (inactive) | > 100 µM (inactive) | > 100 µM (inactive) | –
CCOC(=O)C1=C(OS(=O)(=O)C(F)(F)F)CCCC1 | > 100 µM (inactive) | > 100 µM (inactive) | > 100 µM (inactive) | > 100 µM (inactive) | > 100 µM (inactive) | > 100 µM (inactive) | > 100 µM (inactive) | > 100 µM (inactive) | > 100 µM (inactive) | > 100 µM (inactive) | > 100 µM (inactive) | > 100 µM (inactive) | > 100 µM (inactive) | > 100 µM (inactive) | > 100 µM (inactive) | 83 µM (inactive) | > 100 µM (inactive) | > 100 µM (inactive) | > 100 µM (inactive) | –
C[C@@H](NC(=O)Cn1c(Cl)nc2ccccc21)c1ccccc1 | > 100 µM (inactive) | > 100 µM (inactive) | > 100 µM (inactive) | > 100 µM (inactive) | > 100 µM (inactive) | > 100 µM (inactive) | > 100 µM (inactive) | – | > 100 µM (inactive) | 46.2 µM (inactive) | > 100 µM (inactive) | > 100 µM (inactive) | > 100 µM (inactive) | > 100 µM (inactive) | > 100 µM (inactive) | 17.5 µM (inactive) | > 100 µM (inactive) | > 100 µM (inactive) | > 100 µM (inactive) | –
O=C1OC(c2ccccc2)N(C(=O)c2ccccc2)C1Cc1ccc(OCc2ccccc2)cc1 (stereo unspecified) | 4.67 µM (inactive) | 6.82 µM (inactive) | > 100 µM (inactive) | 21.8 µM (inactive) | 9.89 µM (inactive) | 3.91 µM (inactive) | – | > 100 µM (inactive) | – | 36.7 µM (inactive) | – | 87.5 µM (inactive) | > 100 µM (inactive) | > 100 µM (inactive) | 31.1 µM (inactive) | 43.8 µM (inactive) | > 100 µM (inactive) | 43.9 µM (inactive) | 21.1 µM (inactive) | > 100 µM (inactive)
CCOC(=O)c1cc2cc([N+](=O)[O-])ccc2oc1=O | > 100 µM (inactive) | > 100 µM (inactive) | > 100 µM (inactive) | 58.6 µM (inactive) | 99.5 µM (inactive) | > 100 µM (inactive) | > 100 µM (inactive) | > 100 µM (inactive) | > 100 µM (inactive) | > 100 µM (inactive) | > 100 µM (inactive) | > 100 µM (inactive) | > 100 µM (inactive) | > 100 µM (inactive) | > 10 µM (inactive) | > 100 µM (inactive) | > 100 µM (inactive) | – | 35.6 µM (inactive) | > 100 µM (inactive)
